Target: T1, full length BusR (Lactococcus cremoris, UniProt A2RK30)
T1 construct: full length, His-6 tag fusion in pRSETA, codon optimised, E. coli BL21 whole cell lysate
T1 sequence (A2RK30 1-206): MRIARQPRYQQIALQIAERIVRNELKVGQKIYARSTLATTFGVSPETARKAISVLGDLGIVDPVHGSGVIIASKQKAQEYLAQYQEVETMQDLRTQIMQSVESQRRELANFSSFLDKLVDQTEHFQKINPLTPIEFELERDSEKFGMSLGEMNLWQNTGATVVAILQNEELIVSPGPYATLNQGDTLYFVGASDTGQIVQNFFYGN
Test: DRaCALA with […]-c-di-AMP, E. coli whole cell lysate
Type: biochemical
Conditions: labelled compound; room temperature, 10 min

Structure (SMILES): Nc1ncnc2c1ncn2[C@@H]1O[C@@H]2COP(=O)(O)O[C@H]3[C@@H](O)[C@H](n4cnc5c(N)ncnc54)O[C@@H]3COP(=O)(O)O[C@H]2[C@H]1O [c-di-AMP]
- DRaCALA with 32P-c-di-AMP, E. coli whole cell lysate: Both full length BusR and the BusR TrkA_C domain bound c-di-AMP

From article PMC6108528, “Enhanced uptake of potassium or glycine betaine or export of cyclic-di-AMP restores osmoresistance in a high cyclic-di-AMP Lactococcus lactis mutant” (PLoS Genetics, 2018)
